Literature values, collected in PubChem BioAssay AID1259409 (Chemical Carcinogenesis Research Information System (CCRIS), 2018).
Where a SMILES comes first, the peptide text is derived from it.

System: rodent chemically induced tumor inhibition, incidence and multiplicity
Experiment: CCRIS tumor inhibitor studies
Details: for outcome: Carcinogen: 7,12-Dimethylbenz[a]anthracene, Species: Mouse

CCCCC1OC(=O)c2ccccc21 (stereo not drawn)
tumour outcome (control, treated, inhibition, significance) (Carcinogen: BENZO[A]PYRENE, 50-32-8, Dose [Inhibitor]: 0, 20 MG 3/WK FOR 4 WK ON DAYS OTHER THAN THE CARCINOGEN TREATMENT (STUDY DURATION: 20 WK), Route [Inhibitor]: GAVAGE, Species: MOUSE, Strain/Sex: STRAIN-A/FEMALE, Target Tissue: Type of Lesion: FORESTOMACH: TUMOR, Dose [Carcinogen]: 1 MG IN 0.2 ML COTTONSEED OIL 2/WK FOR 4 WK, Promoter: NONE USED): 13/19 (68%), 6/20 (30%), 56%, p<0.005

O=CCc1c[nH]c2ccccc12
tumour outcome (control, treated, inhibition, significance) (Carcinogen: 7,12-DIMETHYLBENZ[A]ANTHRACENE, 57-97-6, Dose [Inhibitor]: 0.1 MMOL IN 1 ML DIMETHYL SULFOXIDE ONCE 20 HR PRIOR TO CARCINOGEN ADMINISTRATION FOLLOWED BY A 14 WK OBSERVATION PERIOD, Route [Inhibitor]: GAVAGE, Species: RAT, Strain/Sex: SPRAGUE-DAWLEY/FEMALE, Target Tissue: Type of Lesion: MAMMARY GLAND: TUMOR, Dose [Carcinogen]: 12 MG IN 1 ML OLIVE OIL ONCE, Promoter: NONE USED): 64%, 36%, 44%, not significant

Cc1cc2nc3c(=O)[nH]c(=O)nc-3n(C[C@H](O)[C@H](O)[C@H](O)CO)c2cc1C
tumour outcome (control, treated, inhibition, significance) (Carcinogen: 7,12-DIMETHYLBENZ[A]ANTHRACENE, 57-97-6, Dose [Inhibitor]: 2 MG IN DRINKING WATER DAILY STARTING 4 WK BEFORE CARCINOGEN TREATMENT AND CONTINUING FOR DURATION OF THE STUDY (STUDY D, Route [Inhibitor]: ORAL, Species: MOUSE, Strain/Sex: 101/MALE, FEMALE, Target Tissue: Type of Lesion: SKIN: PAPILLOMA, Dose [Carcinogen]: 225 UG IN 0.15 ML ACETONE ONCE, Promoter: CROTON OIL, 8001-28-3): 17/19 (89%), 19/19 (100%), -12%, not calculated
tumour outcome (control, treated, inhibition, significance) (Carcinogen: BENZO[A]PYRENE, 50-32-8, Dose [Inhibitor]: 0.2% IN DIET DAILY STARTING 4 WK BEFORE START OF CARCINOGEN TREATMENT AND CONTINUING FOR DURATION OF STUDY (STUDY DURATI, Route [Inhibitor]: ORAL, Species: MOUSE, Strain/Sex: 101/MALE, FEMALE, Target Tissue: Type of Lesion: SKIN: TUMOR (BENIGN, MALIGNANT), Dose [Carcinogen]: 0.2 ML OF 0.025% SOLUTION IN ACETONE 2/WK FOR 23 WK STARTING 4 WK AFTER STAR OF AGENT TREATMENT, Promoter: NONE USED): 21/30 (70%), 25/28 (89%), -27%, not calculated
tumour outcome (control, treated, inhibition, significance) (Carcinogen: BENZO[A]PYRENE, 50-32-8, Dose [Inhibitor]: 0.25 MG 2/WK FOR 24 WK STARTING 4 WK BEFORE START OF CARCINOGEN TREATMENT AN D CONTINUING FOR DURATION OF STUDY (STUDY D, Route [Inhibitor]: SUBCUTANEOUS, Species: MOUSE, Strain/Sex: 101/MALE, FEMALE, Target Tissue: Type of Lesion: SKIN: MALIGNANT TUMOR, Dose [Carcinogen]: 0.2 ML OF 0.25% 2/WK FOR 20 WK, Promoter: NONE USED): 12/18 (67%), 8/19 (42%), 37%, not calculated
tumour outcome (control, treated, inhibition, significance) (Carcinogen: BENZO[A]PYRENE, 50-32-8, Dose [Inhibitor]: 0.6% IN DIET DAILY STARTING 4 WK BEFORE START OF CARCINOGEN TREATMENT AND CONTINUING FOR DURATION OF STUDY (STUDY DURATI, Route [Inhibitor]: ORAL, Species: MOUSE, Strain/Sex: 101/MALE, FEMALE, Target Tissue: Type of Lesion: SKIN: TUMOR (BENIGN, MALIGNANT), Dose [Carcinogen]: 0.2 ML OF 0.025% SOLUTION IN ACETONE 2/WK FOR 23 WK, Promoter: NONE USED): 21/30 (70%), 32/37 (86%), -23%, not calculated
tumour outcome (control, treated, inhibition, significance) (Carcinogen: BENZO[A]PYRENE, 50-32-8, Dose [Inhibitor]: 2.5 MG 2/WK FOR 24 WK STARTING 4 WK BEFORE START OF CARCINOGEN TREATMENT AND CONTINUING FOR DURATION OF STUDY (STUDY DUR, Route [Inhibitor]: SUBCUTANEOUS, Species: MOUSE, Strain/Sex: 101/MALE, FEMALE, Target Tissue: Type of Lesion: SKIN: PAPILLOMA, Dose [Carcinogen]: 0.2 ML OF 0.25% 2/WK FOR 20 WK, Promoter: NONE USED): 13/18 (72%), 8/19 (42%), 42%, not calculated
tumour outcome (control, treated, inhibition, significance) (Carcinogen: UV IRRADIATION, Dose [Inhibitor]: 15 MG/ML DRINKING WATER DAILY FOR DURATION OF STUDY (STUDY DURATION: 11 MO), Route [Inhibitor]: ORAL, Species: MOUSE, Strain/Sex: HR-HAIRLESS/MALE, Target Tissue: Type of Lesion: SKIN: SQUAMOUS CELL CARCINOMA, Dose [Carcinogen]: 5 MIN/D 6 D/WK FOR DURATION OF STUDY, Promoter: NONE USED): 6/6 (100%), 6/6 (100%), 0%, not significant
tumour outcome (control, treated, inhibition, significance) (Carcinogen: UV IRRADIATION, Dose [Inhibitor]: 15 MG/ML PROPYLENE GLYCOL DAILY FOR DURATION OF STUDY (STUDY DURATION: 11 MO), Route [Inhibitor]: DERMAL, Species: MOUSE, Strain/Sex: HR-HAIRLESS/MALE, Target Tissue: Type of Lesion: SKIN: SQUAMOUS CELL CARCINOMA, Dose [Carcinogen]: 5 MIN/D 6 D/WK FOR DURATION OF STUDY, Promoter: NONE USED): 6/6 (100%), 7/7 (100%), 0%, not significant

CCC(C)SSC(C)CC (stereo not drawn)
tumour outcome (control, treated, inhibition, significance) (Carcinogen: BENZO[A]PYENE, 50-32-8, Dose [Inhibitor]: 0.06 MMOL/G DIET DAILY FOR 6 WK CONCURRENT WITH CARCINOGEN TREATMENT FOLLOWED BY 14 WK ON STANDARD DIET (STUDY DURATION:, Route [Inhibitor]: ORAL, Species: MOUSE, Strain/Sex: ICR/FEMALE, Target Tissue: Type of Lesion: FORESTOMACH: NEOPLASM, Dose [Carcinogen]: 0.3 MG/G IN DIET DAILY FOR 6 WK, Promoter: NONE USED): 40%, 41%, -3%, not significant

O=C(CC(=O)c1ccccc1)c1ccccc1
tumour outcome (control, treated, inhibition, significance) (Carcinogen: 7,12-DIMETHYLBENZ[A]ANTHRACENE, 57-97-6, Dose [Inhibitor]: 0, 1% IN DIET FOR 22 WK BEGINNING 2 WK PRIOR TO CARCINOGEN DOSE (STUDY DURATION: 22 WK), Route [Inhibitor]: ORAL, Species: MOUSE, Strain/Sex: SENCAR/FEMALE, Target Tissue: Type of Lesion: LYMPHATIC SYSTEM: LYMPHOMA OR LEUKEMIA, Dose [Carcinogen]: 1 MG IN 0.1 ML CORN OIL 1/WK FOR 5 WK, Promoter: NONE USED): 45%, 0%, 100%, p<0.05
tumour outcome (control, treated, inhibition, significance) (Carcinogen: 7,12-DIMETHYLBENZ[A]ANTHRACENE, 57-97-6, Dose [Inhibitor]: 0, 1% IN DIET FOR 22 WK BEGINNING 2 WK PRIOR TO CARCINOGEN DOSE (STUDY DURATION: 22WK), Route [Inhibitor]: ORAL, Species: MOUSE, Strain/Sex: SENCAR/FEMALE, Target Tissue: Type of Lesion: MAMMARY GLAND: TUMOR, Dose [Carcinogen]: 1 MG IN 0.1 ML CORN OIL 1/WK FOR 5 WK, Promoter: NONE USED): 68%, 2%, 97%, p<0.05
tumour outcome (control, treated, inhibition, significance) (Carcinogen: 7,12-DIMETHYLBENZ[A]ANTHRACENE, 57-97-6, Dose [Inhibitor]: 0, 1% IN DIET FOR 22 WK BEGINNING 2 WK PRIOR TO CARCINOGEN DOSE (STUDY DURATION: 22WK), Route [Inhibitor]: ORAL, Species: MOUSE, Strain/Sex: SENCAR/FEMALE, Target Tissue: Type of Lesion: OVARY:TUMOR, Dose [Carcinogen]: 1 MG IN 0.1 ML CORN OIL 1/WK FOR 5 WK, Promoter: NONE USED): 20%, 0%, 100%, p<0.05
outcome (57-97-6, Dose [Inhibitor]: 0, 10 umol 3x/wk for 10 wk, Route [Inhibitor]: Dermal, Strain/Sex: CD-1/Female, Target Tissue: Type of Lesion: Skin: tumor, Dose [Carcinogen]: 200 nmol in 200 ul acetone, once, study duration 11 wk, Promoter: Mirex, 2385-85-5): 37%, 15%, not significant
outcome (57-97-6, Dose [Inhibitor]: 0, 10 umol 3x/wk for 14 wk, Route [Inhibitor]: Dermal, Strain/Sex: CD-1/Female, Target Tissue: Type of Lesion: Skin: tumor, Dose [Carcinogen]: 200 nmol in 200 ul acetone, once, study duration 15 wk, Promoter: Mirex, 2385-85-5): 60%, 40%, not significant
outcome (57-97-6, Dose [Inhibitor]: 0, 10 umol 3x/wk for 18 wk, Route [Inhibitor]: Dermal, Strain/Sex: CD-1/Female, Target Tissue: Type of Lesion: Skin: tumor, Dose [Carcinogen]: 200 nmol in 200 ul acetone, once, study duration 19 wk, Promoter: Mirex, 2385-85-5): 80%, 70%, not significant
outcome (57-97-6, Dose [Inhibitor]: 0, 1% in diet for 22 wk beginning 2 wk prior to carcinogen dose (study duration: 22wk), Route [Inhibitor]: Oral, Strain/Sex: Sencar/Female, Target Tissue: Type of Lesion: Mammary Gland: Tumor, Dose [Carcinogen]: 1 mg in 0.1 ml corn oil 1/wk for 5 wk, Promoter: None): 3%, 0%, 100% at 3 wk; 38%, 0%, 100% at 9 wk; 55%, 0% at 13 wk; 68%, 3%, 96% at 2

N[C@@H](CCC(=O)O)C(=O)N[C@@H](Cc1c[nH]c2ccccc12)C(=O)O (H-Glu-Trp-OH)
tumour outcome (control, treated, inhibition, significance) (Carcinogen: NONE, Dose [Inhibitor]: 5 UG 1X/D 5 D/WK FOR 12 MONTHS (STUDY DURATION: 1200 D), Route [Inhibitor]: SUBCUTANEOUS, Species: RAT, Strain/Sex: LIO/FEMALE, Target Tissue: Type of Lesion: TUMORS): 12/31 (38.7%), 10/40 (25.0%), 35%, not significant
